Measurements: patent US9963475B2, “Anthracene-9, 10-dione dioxime compound prodrugs and their uses” (Beta Cat Pharmaceuticals, Inc., priority 2015, dated 2018)
Where a name gives a salt, the structure may show the parent alone. Read-outs that look alike come from different tables or passages of the source. Each block holds one compound with its values, some of them ahead of it.

Legend:
[1] = Pharmacokinetics of Compound 10 (prodrug) and estimation of Compound 1 (parent) following oral and intravenous administration; assay type: in vivo, Male Sprague Dawley Rats; settings: for Vd / AUC(0-inf) / AUC(0-t) / clearance / half-life / MRT last: male, Sprague Dawley; for Vd: rat, plasma, iv, 1.28 mg/kg; for AUC(0-inf) / AUC(0-t) / clearance / half-life / MRT last / AUCExtra / Co: rat plasma; for AUC(0-inf) / AUC(0-t) / clearance / half-life / MRT last / AUCExtra: IV 1.28 mg/kg sodium salt of compound 10; for MRT last: read-out: MRT0-last; for Co: IV 1.28 mg/kg sodium salt of compound 10, mean concentration data
Source text: Pharmacokinetics of Compound 10 (Prodrug) and Estimation of Compound 1 (Parent) Following Oral and Intravenous Administration in Male Sprague Dawley Rats

[2] = Mouse PK study with Compound 24; settings: in vivo; for bioavailability: nominal doses and AUClast of IV (1 mg/kg) and PO (10 mg/kg) used
Source text: Mouse PK Study with Compound 24 Summary of Pharmacokinetic Parameters of Compound 24 and Tegavivint: […]

[3] = Solubility assay in buffer (pH 1 and pH 6), LC-MS/MS; assay type: physicochemical
Experimental: (§1) A stock solution of the compound will be prepared in dimethylsulfoxide (DMSO) at 10 mM concentration. This stock solution will be serially diluted in DMSO to get stock solutions of 5, 2.5, 1.25, 0.625, 0.312, 0.156, and 0.078 mM. Working solutions of compound at a range of concentrations (100, 50, 25, 12.5, 6.25, 3.12, 1.56, and 0.78 μM) will be prepared in different buffers (pH 1 and 6).
(§2) In a 100 mL bottle, 33.5 mL of 0.2 M hydrochloric acid solution will be added to 12.5 mL of 0.2 M potassium chloride solution and diluted to […] with Milli-Q® water. The pH of the buffer solution will be adjusted to 1.0 with 0.2 M HCl solution and finally, volume will be made to 100 mL with Milli-Q® water.
(§3) In a 100 mL bottle, 6.15 mL of 0.2 M disodium hydrogen phosphate (dibasic) and 43.85 mL of 0.2 M sodium dihydrogen phosphate (monobasic) solution will be added. The pH of the buffer solution will be adjusted to 6.0 using the phosphate solutions. The volume will be made to 100 mL with Milli-Q® water.
The study will be performed in a 96-well deep well plate by spiking 10 μL stock solutions into 990 μL buffer. Spiked buffer samples will be maintained at room temperature for 2 h. Incubations will be performed in duplicates. The plate will be centrifuged at 4000 rpm for 20 min at room temperature to enable the insoluble particles/precipitates to settle down. The supernatant will be diluted 1:1 with acetonitrile and internal standard will be added. The samples will be analyzed using LC-MS/MS.
(§4) The samples will be analysed for BC3005 using a fit-for-purpose LC-MS/MS method. If the sample concentration is above upper limit of quantification, the samples will be diluted and read against the calibration curve.
(§5) The concentration in samples will be determined against the calibration curve by using the following equation: Y=mX+C

[4] = Stability assay in buffer (pH 1 and pH 6), LC-MS/MS; assay type: physicochemical
Experimental: as §1, §2, §3
The study will be performed in a 96-well deep well plate by spiking 10 μL of stock solutions into 990 μL buffer and 100 μL aliquots will be withdrawn at 0 and 120 min. The aliquots will be collected in centrifuge tubes containing 100 μL of acetonitrile. To the quenched samples, internal standard will be added and they will be taken for analysis using LC-MS/MS spectrometry. The experiments will be performed in duplicate in an orbital shaker maintained at 37° C. at 60 rpm.
as §4, §5

[5] = IV 1.28 mg/kg sodium salt of compound 10, read-out: Vd
[6] = IV 1.28 mg/kg sodium salt of compound 10, read-out: Vdss
[7] = IV 1 mg/kg Compound 24, read-out: T½ (converted)
[8] = PO 10 mg/kg Compound 24, read-out: C0/Cmax
[9] = aqueous buffer pH 1, simulated gastric fluid, kinetic from dmso stock, pH 1, room temperature
[10] = aqueous buffer pH 6, aqueous buffer, kinetic from dmso stock, pH 6, room temperature

Compound: C[C@@H]1C[C@H](C)CN(S(=O)(=O)c2ccc3c(c2)C(=NO)c2cc(S(=O)(=O)N4C[C@H](C)C[C@H](C)C4)ccc2C3=NO)C1 [Compound 1, (9E,10E)-2,7-bis(((3R,5S)-3,5-dimethylpiperidin-1-yl)sulfonyl)anthracene-9,10-dione dioxime, reference compound]
Vd [1, 5]: 16.9 L/kg
Vd [1, 6]: 15 L/kg
AUC(0-inf) [1]: 446 ng·h/mL
AUC(0-t) [1]: 396 ng·h/mL
clearance [1]: 48.3 mL/min/kg
half-life [1]: 4 h
MRT last [1]: 3.56 h
AUCExtra [1]: 11.19%
Co [1]: 116.31 ng/mL
AUC(0-inf) ([2]; IV 1 mg/kg Compound 24): 873 ng·h/mL
AUC(0-t) ([2]; IV 1 mg/kg Compound 24): 752 ng·h/mL
MRT inf ([2]; IV 1 mg/kg Compound 24): 10.5 h
half-life [2, 7]: 9.39 h
AUC(0-t) ([2]; PO 10 mg/kg Compound 24): 229 ng·h/mL
Tmax ([2]; PO 10 mg/kg Compound 24): 1 h
Cmax [2, 8]: 52.5 ng/mL
bioavailability [2]: 3%

Compound: C[C@@H]1C[C@H](C)CN(S(=O)(=O)c2ccc3c(c2)C(=NO)c2cc(S(=O)(=O)N4C[C@H](C)C[C@H](C)C4)ccc2C3=NOP(=O)(O)O)C1 [Compound 4, ((((9E,10E)-3,6-bis(((3R,5S)-3,5-dimethylpiperidin-1-yl)sulfonyl)-10-(hydroxyimino)-anthracen-9(10H)-ylidene)amino)oxy)phosphonic acid]
solubility at 2 h [3, 9]: < 0.78 µM
solubility at 2 h [3, 10]: > 100 µM
% Compound remaining at 120 min ([4]; pH 1, 37° C.): 96%
% Compound remaining at 120 min ([4]; pH 6, 37° C.): 101%

Compound: C[C@@H]1C[C@H](C)CN(S(=O)(=O)c2ccc3c(c2)C(=NO)c2cc(S(=O)(=O)N4C[C@H](C)C[C@H](C)C4)ccc2C3=NOCOP(=O)(O)O)C1 [Compound 10, ((((9E,10E)-3,6-bis(((3S,5R)-3,5-dimethylpiperidin-1-yl)sulfonyl)-10-(hydroxyimino)anthracen-9(10H)-ylidene)amino)-oxy)methyl dihydrogen phosphate]
Vd [1, 5]: 3.31 L/kg
Vd [1, 6]: 0.39 L/kg
AUC(0-inf) [1]: 885 ng·h/mL
AUC(0-t) [1]: 869 ng·h/mL
clearance [1]: 24.1 mL/min/kg
half-life [1]: 1.59 h
MRT last [1]: 0.15 h
AUCExtra [1]: 1.81%
Co [1]: 11437.00 ng/mL
solubility at 2 h [3, 9]: < 0.78 µM
solubility at 2 h [3, 10]: < 0.78 µM
% Compound remaining at 120 min ([4]; pH 1, 37° C.): 101%
% Compound remaining at 120 min ([4]; pH 6, 37° C.): 79%

Compound: CCC(C)C(N)C(=O)OCON=C1c2ccc(S(=O)(=O)N3C[C@H](C)C[C@H](C)C3)cc2C(=NO)c2cc(S(=O)(=O)N3C[C@H](C)C[C@H](C)C3)ccc21 (stereo partly drawn) [Compound 24, ((((9E,10E)-3,6-bis(((3R,5S)-3,5-dimethylpiperidin-1-yl)sulfonyl)-10-(hydroxyimino)anthracen-9(10H)-ylidene)amino)oxy)methyl 2-amino-3-methylpentanoate dihydrochloride]
solubility at 2 h [3, 9]: > 100 µM
solubility at 2 h [3, 10]: < 0.78 µM
% Compound remaining at 120 min ([4]; pH 1, 37° C.): 101%
% Compound remaining at 120 min ([4]; pH 6, 37° C.): 93%
AUC(0-inf) ([2]; IV 1 mg/kg Compound 24): 379 ng·h/mL
AUC(0-t) ([2]; IV 1 mg/kg Compound 24): 376 ng·h/mL
MRT inf ([2]; IV 1 mg/kg Compound 24): 0.476 h
clearance ([2]; IV 1 mg/kg Compound 24): 43.9 mL/min/kg
Cmax ([2]; IV 1 mg/kg Compound 24, C0 back extrapolated concentration at time zero): 2370 ng/mL
half-life [2, 7]: 0.748 h
Vd ([2]; IV 1 mg/kg Compound 24, read-out: VSS): 1.25 L/kg
AUC(0-inf) ([2]; PO 10 mg/kg Compound 24): 78.2 ng·h/mL
AUC(0-t) ([2]; PO 10 mg/kg Compound 24): 60.5 ng·h/mL
MRT inf ([2]; PO 10 mg/kg Compound 24): 1.36 h
Tmax ([2]; PO 10 mg/kg Compound 24): 0.25 h
Cmax [2, 8]: 60.7 ng/mL
half-life ([2]; PO 10 mg/kg Compound 24, read-out: T½ (converted)): 0.873 h
bioavailability [2]: 2%

Compound: CCC(C)C(N)C(=O)OCON=C1c2cc(S(=O)(=O)N3C[C@H](C)C[C@H](C)C3)ccc2C(=NO)c2ccc(S(=O)(=O)N3C[C@H](C)C[C@H](C)C3)cc21 (stereo partly drawn) [Compound 38, ((((9E,10E)-2,7-bis(((3S,5R)-3,5-dimethylpiperidin-1-yl)sulfonyl)-10-(hydroxyimino)anthracen-9(10H)-ylidene)amino)oxy)methyl 2-amino-3-methylpentanoate]
solubility at 2 h [3, 9]: < 0.78 µM
solubility at 2 h [3, 10]: < 0.78 µM
% Compound remaining at 120 min ([4]; pH 1, 37° C.): 85%
% Compound remaining at 120 min ([4]; pH 6, 37° C.): 96%

More lines, now with the values ahead:

solubility at 2 h ([3]; pH 1, room temperature): <0.78 µM
solubility at 2 h ([3]; pH 6, room temperature): <0.78 µM
% Compound remaining at 120 min ([4]; pH 1, 37° C.): 98%
% Compound remaining at 120 min ([4]; pH 6, 37° C.): 76%
Compound: CC(C)C[C@H](N)C(=O)OCON=C1c2ccc(S(=O)(=O)N3C[C@H](C)C[C@H](C)C3)cc2C(=NO)c2cc(S(=O)(=O)N3C[C@H](C)C[C@H](C)C3)ccc21.Cl [Compound 41, ((((9E,10E)-3,6-bis(((3R,5S)-3,5-dimethylpiperidin-1-yl)sulfonyl)-10-(hydroxyimino)anthracen-9(10H)-ylidene)amino)oxy)methyl leucinate hydrochloride]

solubility at 2 h ([3]; pH 1, room temperature): <0.78 µM
solubility at 2 h ([3]; pH 6, room temperature): <0.78 µM
% Compound remaining at 120 min ([4]; pH 1, 37° C.): 90%
% Compound remaining at 120 min ([4]; pH 6, 37° C.): 128%
Compound: CC(C)[C@H](N)C(=O)OCON=C1c2cc(S(=O)(=O)N3C[C@H](C)C[C@H](C)C3)ccc2C(=NO)c2ccc(S(=O)(=O)N3C[C@H](C)C[C@H](C)C3)cc21.Cl [Compound 43, ((((9E,10E)-2,7-bis(((3R,5S)-3,5-dimethylpiperidin-1-yl)sulfonyl)-10-(hydroxyimino)anthracen-9(10H)-ylidene)amino)-oxy)methylvalinate hydrochloride]

solubility at 2 h ([3]; pH 1, room temperature): <0.78 µM
solubility at 2 h ([3]; pH 6, room temperature): <0.78 µM
% Compound remaining at 120 min ([4]; pH 1, 37° C.): 93%
% Compound remaining at 120 min ([4]; pH 6, 37° C.): 97%
Compound: C[C@@H]1C[C@H](C)CN(S(=O)(=O)c2ccc3c(c2)C(=NOCOC(=O)C(N)C(C)(C)C)c2cc(S(=O)(=O)N4C[C@H](C)C[C@H](C)C4)ccc2C3=NO)C1 (stereo partly drawn) [Compound 46, ((((9E,10E)-2,7-bis(((3R,5S)-3,5-dimethyl-piperidin-1-yl)sulfonyl)-10-(hydroxyimino)anthracen-9(10H)-ylidene)amino)oxy)methyl-2-amino-3,3-dimethylbutanoate]
